Tests used:
[1] = system: Ba/F3-TEL-TYK2 cells; test: Proliferation of Ba/F3-TEL-TYK2 cells (CellTiter-Glo); assay type: cell-based; conditions: 72 hours, read-out: Half maximal inhibitory concentration IC50 for cells Ba/F3-TEL-TYK2
Text: (§1) Adenosine triphosphate (ATP) serves as a universal energy carrier in various life processes, representing the smallest unit of energy storage and transfer. The CellTiter-Glo™ Luminescent Cell Viability Assay Kit utilizes luciferase as a detection agent. During the luminescent process, luciferase requires the participation of ATP. By adding CellTiter-Glo™ reagent to the cell culture medium and measuring the luminescence, the light signal was directly proportional to the amount of ATP in the system, and ATP was positively correlated with the number of viable cells. Therefore, cell proliferation can be detected by measuring ATP content using the CellTiter-Glo kit. In this test, the cell lines used were Ba/F3-FL-TYK2-E957D and Ba/F3-TEL-TYK2. Ba/F3-FL-TYK2-E957D cells can stably express the exogenously introduced human TYK2-E957D gene, and the TYK2-E957D gene sequence contains both JH1 and JH2 domains. On the other hand, Ba/F3-TEL-TYK2 cells can stably express the exogenously introduced human TEL-TYK2 gene, and the TEL-TYK2 gene sequence contains only the JH1 domain of TYK2.
(§2) The cell lines were cultured in an incubator at 37° C. with 5% CO2. Regular passaging was performed, and cells in the logarithmic growth phase were selected for plating.
(§3) • a) The test compounds were prepared into a 10 mM solution with DMSO, and then diluted to 0.3 or 1 mM with DMSO. • b) Preparation of 1000× compound storage plate (tube): The compounds were 3-fold serially diluted from the highest concentration to the lowest concentration, creating 9 different concentrations. • c) Preparation of 20× compound working solution: 49 μL of cell culture medium was added to a flat-bottomed 96-well transparent drug plate. From the 1000× compound storage plate, 1 μL of the compound was pipetted into the cell culture medium in the 96-well transparent drug plate. In the solvent control, 1 μL of DMSO was added. After the compound or DMSO was added, the mixture was homogenized using a multi-channel pipette.
(§4) • a) Cells were stained with trypan blue and viable cells were counted to ensure a cell viability of 90% or more. • b) 95 μL of cell suspension (2000 cells/well) was added to each well of the compound assay cell plate, and cell-free culture medium containing 0.1% DMSO was added to the Min control wells. • c) Administration in the compound assay cell plate: 5 μL of 20× compound working solution was added to the cell culture plate. 5 μL of DMSO-cell culture medium mixture was added to the Max control wells. The final concentration of DMSO was 0.1%. • d) The culture plate was then incubated in an incubator at 37° C. with 5% CO2 for 72 hours.
(§5) The following steps were conducted in accordance with the instructions of the Promega CellTiter-Glo Luminescent Cell Viability Assay Kit (Promega-G7573). • a) CellTiter-Glo buffer was thawed and brought to room temperature. • b) CellTiter-Glo substrate was also brought to room temperature. • c) CellTiter-Glo buffer was added to a bottle of CellTiter-Glo substrate to dissolve the substrate, thereby preparing CellTiter-Glo working solution. • d) The mixture was slowly vortexed and shaken to be fully dissolved. • e) The cell culture plate was removed and allowed to equilibrate to room temperature for 10 minutes. • f) 50 μL (equal to half the volume of cell culture medium in each well) of CellTiter-Glo working solution was added to each well. • g) The culture plate was shaken on an orbital shaker for 2 minutes to induce cell lysis. • h) The plate was then left at room temperature for 10 minutes to stabilize the luminescent signal. • i) The luminescent signal was detected using a SpectraMax Paradigm plate reader.
(§6) Data analysis was conducted using GraphPad Prism 5.0 software. Nonlinear S-curve regression was employed to fit the data and generate dose-response curves. From these curves, the IC50 values were calculated.

[2] = target: Ba/F3-FL-TYK2-E957D cells (Homo sapiens, UniProt P29597, E957D, cells depend on it); test: Proliferation of Ba/F3-FL-TYK2-E957D cells (CellTiter-Glo); assay type: cell-based, mouse; conditions: 72 hours, read-out: Half maximal inhibitory concentration IC50 for cells Ba/F3-FL-TYK2-E957D
Chain of Ba/F3-FL-TYK2-E957D cells (P29597 whole entry E957D): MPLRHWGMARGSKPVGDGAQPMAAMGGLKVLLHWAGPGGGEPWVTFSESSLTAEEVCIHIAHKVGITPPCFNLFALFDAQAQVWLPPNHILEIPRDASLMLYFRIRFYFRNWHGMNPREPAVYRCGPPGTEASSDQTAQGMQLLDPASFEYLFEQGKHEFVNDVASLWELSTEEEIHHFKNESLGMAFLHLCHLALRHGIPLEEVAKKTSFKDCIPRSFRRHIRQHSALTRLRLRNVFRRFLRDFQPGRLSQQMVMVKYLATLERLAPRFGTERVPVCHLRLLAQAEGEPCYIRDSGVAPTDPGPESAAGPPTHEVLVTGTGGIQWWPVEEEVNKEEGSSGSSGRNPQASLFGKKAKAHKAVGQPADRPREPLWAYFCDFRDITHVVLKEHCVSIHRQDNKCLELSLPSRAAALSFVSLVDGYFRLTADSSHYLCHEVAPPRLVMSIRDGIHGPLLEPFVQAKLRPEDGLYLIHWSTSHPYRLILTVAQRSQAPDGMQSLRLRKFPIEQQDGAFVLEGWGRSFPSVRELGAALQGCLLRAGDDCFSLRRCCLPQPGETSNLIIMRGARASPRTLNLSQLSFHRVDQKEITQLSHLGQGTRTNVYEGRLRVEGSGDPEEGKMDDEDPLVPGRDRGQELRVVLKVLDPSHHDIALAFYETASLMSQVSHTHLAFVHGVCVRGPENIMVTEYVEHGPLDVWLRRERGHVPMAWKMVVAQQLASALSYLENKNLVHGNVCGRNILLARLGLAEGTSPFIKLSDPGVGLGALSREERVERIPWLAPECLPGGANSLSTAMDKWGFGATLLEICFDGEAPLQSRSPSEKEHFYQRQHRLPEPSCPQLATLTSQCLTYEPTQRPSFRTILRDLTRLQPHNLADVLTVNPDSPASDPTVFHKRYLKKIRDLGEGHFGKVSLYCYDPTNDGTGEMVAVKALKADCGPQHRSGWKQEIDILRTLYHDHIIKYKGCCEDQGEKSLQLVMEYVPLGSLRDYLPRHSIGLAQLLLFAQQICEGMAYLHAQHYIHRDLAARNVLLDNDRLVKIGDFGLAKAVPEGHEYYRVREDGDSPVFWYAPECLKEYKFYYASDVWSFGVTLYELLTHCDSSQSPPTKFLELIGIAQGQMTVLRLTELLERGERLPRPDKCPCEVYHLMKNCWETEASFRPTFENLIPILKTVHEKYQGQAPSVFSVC
Text: as §1, §2, §3, §4, §5, §6

[3] = system: TYK2 signaling pathway (IFN-α/pSTAT1); test: IFN-α-induced STAT1 phosphorylation in mouse whole blood; assay type: cell-based; conditions: CD3+ cells
Experimental: The purpose of this experiment was to detect the inhibitory effect of the compound on the JAK-STAT signaling pathway activated by IFN-α in mouse whole blood. Fresh mouse whole blood was collected and placed in a 96-well plate. The test compound was added and incubated for 1 hour, followed by stimulation with IFN-α. The corresponding STAT1 phosphorylation level in the CD3^+ cell population was analyzed using flow cytometer by means of surface antibody staining and intracellular phosphorylated antibody staining. The IFN-α-induced STAT1 phosphorylation in mouse whole blood is dependent on TYK2 activity. By detecting the inhibitory activity of the compound on downstream […] phosphorylation, the half maximal inhibitory concentration (IC50) of the compound on TYK2 signaling pathway activity can be determined.
• a) The compound was prepared into a 10 mM solution with dimethyl sulfoxide (DMSO), and diluted in DMSO to a solution with various concentrations, 500 times the final concentration. • b) 5 μL of the diluted compound was transferred to 120 μL of phosphate buffered saline (PBS) containing 0.1% bovine serum albumin (BSA). • c) Positive and negative control groups were set up, with both finally containing 0.2% DMSO.
• a) 67.5 μL of mouse whole blood was added to each well of a 96-well cell culture plate. • b) 3.5 μL of the diluted compound was added thereto and mixed thoroughly. • c) The plate was incubated in a 37° C. incubator for 60 minutes. • d) Mouse interferon recombinant protein was diluted 125-fold in PBS containing 0.1% BSA, and anti-mouse CD3 antibody was diluted 5-fold in PBS containing 0.1% BSA. 5 μL of diluted anti-mouse CD3 antibody and 4 μL of diluted mouse interferon recombinant protein were added to each well. • e) The plate was incubated in a 37° C. incubator for 30 minutes. • f) All cells were transferred to a 96-well deep well plate, and 1 mL of 37° C. pre-warmed 1× lysis/fixation buffer was added thereto. • g) The cells were incubated in the dark at 37° C. for 10 minutes. • h) After centrifugation at 600 g for 5 minutes, the supernatant was discarded, and the cells were washed twice with 1 mL of PBS by centrifugation. • i) 0.4 mL per well of permeabilization buffer was added to the cell pellet and mixed thoroughly. The cells were incubated in the dark at 4° C. for 30 minutes. • j) After centrifugation at 600 g for 5 minutes, the supernatant was discarded, and the cells were washed twice with 1 mL of flow cytometry staining buffer (PBS+0.2% BSA+1 mM EDTA) by centrifugation. • k) Anti-STAT1 antibody was diluted 65-fold in flow cytometry staining buffer, and added to cell-containing wells at 100 μL per well and mixed thoroughly. • l) The cells were incubated at room temperature for 40 minutes. • m) 1 mL per well of flow cytometry staining buffer was added, and the cells were washed twice by centrifugation at 600 g for 5 minutes. • n) The supernatant was discarded, and the cell pellet was resuspended in 300 μL of flow cytometry staining buffer. • o) The samples were loaded for analysis using the Beckman CytoFlex flow cytometer.
Data were analyzed using FlowJo software. Curve fitting was performed and the IC50 was calculated using GraphPad Prism 8 software.

[4] = system: JH2 pseudokinase domain of TYK2; conditions: background statement; cited from earlier work

With `COc1c(Nc2cc(NC(=O)C3CC3)ncc2C(N)=O)cccc1-c1ccc(S(=O)(=O)C(C)C)cn1` [Trifluoroacetate of WX-034] the IC50 [1] was > 10000 nM, the GI50 [2] was 0.1 nM and the IC50 [3] was 93.2 nM.

In the case of `COc1c(Nc2cc(NC(=O)C3CC3)ncc2C(N)=O)cccc1-c1ncc(S(=O)(=O)C(C)C)cn1` [WX-033], the IC50 [1] is reported as > 10000 nM, the GI50 [2] is reported as 0.1 nM and the IC50 [3] is reported as 316 nM.

For `[2H]C([2H])([2H])NC(=O)c1nnc(NC(=O)C2CC2)cc1Nc1cccc(-c2ncn(C)n2)c1OC` [BMS-986165], the kinase selectivity [4] is listed as > 1000 fold.

From patent publication US20240335462A1, “SULFUR/PHOSPHORUS-CONTAINING ARYL COMPOUND AND APPLICATION THEREOF” (MEDSHINE DISCOVERY INC., priority 2021, published 2024)
